{
  "source": "patent US20260146044A1",
  "about": "“AROMATIC COMPOUND, PHARMACEUTICAL COMPOSITION CONTAINING SAME, AND USE THEREOF” (Increland, priority 2023, published 2026)",
  "key": {"[1]": {"tested_on": "secretion levels of IL-6 in PBMC cells", "experiment": "Inhibition of LPS+IL-1β-induced IL-6 secretion in PBMC (IL-6 ELISA)", "type": "cell-based", "conditions": "human PBMC, 24 h compound pre-incubation, 20 h stimulation", "description": "This experiment was carried out in RPMI 1640 medium containing 10% FBS/1% penicillin/streptomycin, with each of the compounds at an initial test concentration of 1 μM. The compound DMSO was dissolved to form a stock solution, which was gradiently diluted 5-fold with the culture medium to a 4× working solution concentration. The diluted solution was added to a 96-well plate with 50 μL per well. PBMC (batch No.: HPP20062307, Sichuan Hope Bio-tech Co., Ltd.) cells were counted, and diluted to a concentration of 2×10^6/mL. The diluted cells were added to the above compound-containing 96-well plate with 150 μL per well, fully mixed, and incubated in an incubator with 5% CO2 at 37° C. for 24 h. Then, LPS and […] were further added to final concentrations of 10 ng/mL and 20 ng/mL, respectively, and the cells were further incubated in the incubator with 5% CO2 at 37° C. for 20 h. Then, after centrifugation at 2,000 rpm for 4 min, the supernatant was diluted 110×, and detected using an IL-6 ELISA kit. An OD450 value was read, and converted to an IL-6 concentration based on a standard curve, to calculate an IC50 value by fitting a dose-effect curve using GraphPad 5.0."}, "IRAK4 protein": {"target": "T1, IRAK4 protein (Homo sapiens, UniProt Q9NWZ3)", "T1 construct": "Effects of Compounds on IRAK4 Protein Degradation in THP1 Cells; endogenous in cells; host or cells: THP-1 cells", "T1 sequence (Q9NWZ3 1-460)": "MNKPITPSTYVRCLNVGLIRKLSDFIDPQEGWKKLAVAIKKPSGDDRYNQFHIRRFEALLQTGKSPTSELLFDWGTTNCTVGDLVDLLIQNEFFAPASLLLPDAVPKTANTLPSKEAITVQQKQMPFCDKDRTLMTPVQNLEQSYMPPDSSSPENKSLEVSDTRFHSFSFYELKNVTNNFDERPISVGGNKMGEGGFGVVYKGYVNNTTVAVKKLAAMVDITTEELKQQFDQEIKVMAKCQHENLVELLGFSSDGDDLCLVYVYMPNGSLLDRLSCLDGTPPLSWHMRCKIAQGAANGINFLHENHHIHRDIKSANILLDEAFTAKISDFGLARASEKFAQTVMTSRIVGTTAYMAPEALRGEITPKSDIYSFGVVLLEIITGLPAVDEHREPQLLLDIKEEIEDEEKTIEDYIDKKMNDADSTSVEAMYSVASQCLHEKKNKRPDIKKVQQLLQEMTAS", "experiment": "IRAK4 protein degradation in THP1 cells (Western blot)", "type": "cell-based", "conditions": "24 h", "description": "THP-1 cells were inoculated into a 96-well cell culture plate, with 5×10^4 cells and 100 μL of a culture medium per well. The cell culture plate was cultured in an incubator with 5% CO2 at 37° C. overnight. 100 nl of a well-prepared compound stock solution and a compound-free DMSO stock solution were respectively added to cells per well. The cell culture plate was incubated in an incubator with 5% CO2 at 37° C. for 24 h. One protease inhibitor tablet and one phosphatase inhibitor tablet were added to 20 mL of a cell lysis buffer, and they were gently mixed until complete dissolution. DTT at a final concentration of 200 mM was added to a 4× sample preparation buffer to prepare a 4× sample preparation working solution. 20× electrophoretic buffer was diluted to 1× with ultrapure water. 20× transfer buffer was diluted to 1× with ultrapure water, and 20% methanol was added. […] IRAK4 protein primary antibody working solution: 20 μl of IRAK4 antibody added to 20 mL of a blocking solution; β-Actin primary antibody working solution: 2 μl of beta-actin (13E5) Rabbit mAb antibody added to 20 mL of a blocking solution. IRAK4 protein secondary antibody working solution: Donkey Anti-Goat IgG H&L (HRP) diluted 1/5,000 in a blocking solution; 3-Actin secondary antibody working solution: Anti-rabbit IgG, RP-linked antibody diluted 1/10,000 in a blocking solution. The cell culture plate was centrifuged at 3,000 rpm for 3 min, and most of the culture medium was carefully pipetted. The cell plate was inverted, and centrifuged at 300 rpm for 30 s. 45 μL of a lysis buffer was added to each well. The mixture was shaken at 300 rpm for 30 s, allowed to stand on ice for 30 min, and pipetted 30 times at 20 min. 6 μL of 4× sample preparation working solution was added to 18 μL of protein supernatant for sample preparation, and the mixture was heated at 70° C. for 10 min. Remaining protein samples were stored at −80° C. In the precast gel, 8 μl of sample was loaded into each well for electrophoresis at a constant voltage of 120 V for about 60 min, transferred using a PVDF membrane at a constant current of 300 mA for 1 h, then blocked with a blocking solution at room temperature for 1 h, and incubated in a primary antibody working solution at 4° C. overnight. The membrane was washed with 1×TBST buffer for 3×10 min. The secondary antibody working solution was incubated at room temperature for 1 h. The membrane was washed with 1×TBST buffer for 3×10 min, and a chromogenic solution was used for exposure and color development."}, "[2]": {"tested_on": "secretion levels of IL-6 in PBMC cells", "experiment": "Inhibition of R848-induced IL-6 secretion in PBMC (IL-6 ELISA)", "type": "cell-based", "conditions": "human PBMC, 20 h compound pre-incubation, 24 h stimulation", "description": "This experiment was carried out in RPMI 1640 medium containing 10% FBS/1% penicillin/streptomycin, with each of the compounds at an initial test concentration of 1 μM. The compound DMSO was dissolved to form a stock solution, which was gradiently diluted 4-fold with the culture medium to a 4× working solution concentration. The diluted solution was added to a 96-well plate with 50 μL per well. PBMC (batch No.: HPP20062307, Sichuan Hope Bio-tech Co., Ltd.) cells were counted, and diluted to a concentration of 2×10^6/mL. The diluted cells were added to the above compound-containing 96-well plate with 150 μL per well, fully mixed, and incubated in an incubator with 5% CO2 at 37° C. for 20 h. Then, R848 was further added until a final concentration of […], and the cells were further incubated in the incubator with 5% CO2 at 37° C. for additional 24 h. Then, after centrifugation at 2,000 rpm for 4 min, the supernatant was diluted 110×, and detected using an IL-6 ELISA kit. An OD450 value was read, and converted to an IL-6 concentration based on a standard curve, to calculate an IC50 value by fitting a dose-effect curve using GraphPad 5.0."}, "[3]": {"experiment": "Pharmacokinetic experiment on SD rats (iv and ig)", "type": "in vivo", "conditions": "Sprague-Dawley, rat, plasma; for Cmax: read-out: Peak plasma concentration Cmax", "description": "Pharmacokinetic experiment on SD rats: in this experiment, two administration modes: oral intragastric administration and tail vein injection were selected. Each of the compounds of the present patented invention was administered at an oral dose of 5 mg/kg at an administration volume of 10 mL/kg. […] Appropriate amounts of Solutol and H2O were proportionally added sequentially, and fully mixed ultrasonically by vortexing, to prepare a clear drug solution at 0.5 mg/mL. ICL004-protodrug was administered by intravenous injection at a dose of 1 mg/kg at an administration volume of 10 mL/kg. Right before use, an appropriate amount of the drug was accurately weighed, to prepare a final volume of 20% PEG 400 and 80% Saline. Appropriate amounts of PEG 400 and Saline were proportionally added sequentially, and fully mixed ultrasonically by vortexing, to prepare a clear drug solution at 0.1 mg/mL.\n6 SD rats, each with body weight of 180-220 g, were randomly grouped into 2 groups. After fasting but with free access to water overnight, each […] in the first group was administered by gavage. 200 μL of blood was sampled from its eye socket into an anticoagulant tube respectively at each time point of 15 min, 30 min, 1 h, 2 h, 4 h, 6 h, 8 h, and 24 h after administration. Within one h, each of the blood samples was centrifuged at 10,000 rpm at 4° C. for 20 min (the sample was stored on an ice box prior to the centrifugation), and the supernatant (i.e., the plasma) was stored in a refrigerator at −20° C. for LC-MS/MS analysis. 200 μL of blood was sampled from the eye socket of each […] in the second group into an anticoagulant tube respectively at each time point of 5 min, 15 min, 30 min, 1 h, 2 h, 4 h, 8 h, and 24 h after administration by intravenous injection. Within one h, each of the blood samples was centrifuged at 10,000 rpm at 4° C. for 20 min (the blood sample was stored on an ice box prior to the centrifugation), and the supernatant, i.e., the plasma, was stored in a refrigerator at −20° C. for LC-MS/MS analysis."}, "[4]": {"experiment": "Pharmacokinetic experiment on mice (iv and ig)", "type": "in vivo", "conditions": "mouse, plasma, BALB/c Mice; for Cmax: read-out: Peak plasma concentration Cmax"}, "[5]": {"conditions": "po, ig 5.00 mg/kg vs iv 1.00 mg/kg, read-out: Oral bioavailability Fobs (%)"}},
  "data": [
    {"compound": "Cc1nn(C2CCC(=O)NC2=O)c2cccc(N3CCC(CN4CCC(N5Cc6cc(NC(=O)c7cnn8cccnc78)c(N(C)C)cc6C5=O)CC4)CC3)c12", "note": "(stereo not drawn) [TM-66]", "values": [
      {"measurement": "IC50", "setting": "[1]", "result": 19.4, "unit": "nM"},
      {"measurement": "DC50", "setting": "IRAK4 protein", "result": 0.57, "unit": "nM"},
      {"measurement": "IC50", "setting": "[2]", "result": 262, "unit": "nM"}
    ]},
    {"compound": "Cc1nn(C2CCC(=O)NC2=O)c2cccc(N3CCCN(C[C@H]4CC[C@H](n5cc6cc(NC(=O)c7cnn8cccnc78)c(N(C)C)cc6n5)CC4)CC3)c12", "note": "(stereo partly drawn) [TM-96]", "values": [
      {"measurement": "IC50", "setting": "[1]", "result": 7.18, "unit": "nM"},
      {"measurement": "DC50", "setting": "IRAK4 protein", "result": 0.58, "unit": "nM"}
    ]},
    {"compound": "Cc1nn(C2CCC(=O)NC2=O)c2cccc(N3CCC4(CC3)CN(C[C@H]3CC[C@H](n5cc6cc(NC(=O)c7cnn8cccnc78)c(N(C)C)cc6n5)CC3)C4)c12", "note": "(stereo partly drawn) [TM-101]", "values": [
      {"measurement": "AUC", "setting": "[3]; iv, 1.00 mg/kg", "result": 625, "unit": "ng·h/mL"},
      {"measurement": "AUC(0-inf)", "setting": "[3]; iv, 1.00 mg/kg", "result": 674, "unit": "ng·h/mL"},
      {"measurement": "Cmax", "setting": "[3]; iv, 1.00 mg/kg", "result": 151, "unit": "ng/mL"},
      {"measurement": "bioavailability", "setting": "[3]; [5]", "result": 11.1, "unit": "%"},
      {"measurement": "AUC", "setting": "[3]; po, ig, 5.00 mg/kg", "result": 374, "unit": "ng·h/mL"},
      {"measurement": "AUC(0-inf)", "setting": "[3]; po, ig, 5.00 mg/kg", "result": 435, "unit": "ng·h/mL"},
      {"measurement": "Cmax", "setting": "[3]; po, ig, 5.00 mg/kg", "result": 23, "unit": "ng/mL"},
      {"measurement": "bioavailability", "setting": "[4]; [5]", "result": 20.1, "unit": "%"},
      {"measurement": "AUC", "setting": "[4]; po, ig, 5.00 mg/kg", "result": 3370, "unit": "ng·h/mL"},
      {"measurement": "AUC(0-inf)", "setting": "[4]; po, ig, 5.00 mg/kg", "result": 3550, "unit": "ng·h/mL"},
      {"measurement": "Cmax", "setting": "[4]; po, ig, 5.00 mg/kg", "result": 356, "unit": "ng/mL"},
      {"measurement": "AUC", "setting": "[4]; iv, 1.00 mg/kg", "result": 3390, "unit": "ng·h/mL"},
      {"measurement": "AUC(0-inf)", "setting": "[4]; iv, 1.00 mg/kg", "result": 3520, "unit": "ng·h/mL"},
      {"measurement": "Cmax", "setting": "[4]; iv, 1.00 mg/kg", "result": 580, "unit": "ng/mL"},
      {"measurement": "IC50", "setting": "[1]", "result": 1.17, "unit": "nM"},
      {"measurement": "DC50", "setting": "IRAK4 protein", "result": "< 0.1", "unit": "nM"}
    ]},
    {"compound": "Cc1nn(C2CCC(=O)NC2=O)c2cccc(N3CC4CN(C[C@H]5CC[C@H](n6cc7cc(NC(=O)c8cnn9cccnc89)c(N(C)C)cc7n6)CC5)CC4C3)c12", "note": "(stereo partly drawn) [TM-102]", "values": [
      {"measurement": "IC50", "setting": "[1]", "result": 5.94, "unit": "nM"},
      {"measurement": "DC50", "setting": "IRAK4 protein", "result": 0.9, "unit": "nM"}
    ]},
    {"compound": "Cc1nn(C2CCC(=O)NC2=O)c2cncc(N3CCC(CN4CCC(n5cc6cc(NC(=O)c7cnn8cccnc78)c(N(C)C)cc6n5)CC4)CC3)c12", "note": "(stereo not drawn) [TM-106]", "values": [
      {"measurement": "IC50", "setting": "[1]", "result": 54.9, "unit": "nM"},
      {"measurement": "DC50", "setting": "IRAK4 protein", "result": 0.044, "unit": "nM"}
    ]},
    {"compound": "Cc1nn(C2CCC(=O)NC2=O)c2ccnc(N3CCC4(CC3)CN(C[C@H]3CC[C@H](n5cc6cc(NC(=O)c7cnn8cccnc78)c(N(C)C)cc6n5)CC3)C4)c12", "note": "(stereo partly drawn) [TM-113]", "values": [
      {"measurement": "IC50", "setting": "[1]", "result": 0.62, "unit": "nM"},
      {"measurement": "DC50", "setting": "IRAK4 protein", "result": 1.06, "unit": "nM"}
    ]}
  ]
}
